One assay has as its target rat α7 nAChR (Rattus norvegicus, UniProt Q05941). Description: cell-based. It counts as binding.
A further assay has as its target T1, human α7 nAChR (Homo sapiens, UniProt P36544).
T1 construct: expressed in transfected cells; host or cells: Xenopus laevis oocytes injected with cRNA; clones from Dr. Jon Lindstrom (α7) and Dr. Millet Treinin (RIC-3)
Put plainly: voltage-clamp electrophysiology in Xenopus oocytes. Type of assay: biochemical. The conditions noted are these: for agonist activity at α7 nAChR ion channel: Xenopus oocyte membrane current, control conditions. As for the experimental part:
(§1) Human nAChR receptor clones were obtained from Dr. Jon Lindstrom (University of Pennsylvania, Philadelphia, PA). The RIC-3 clone was obtained from Dr. Millet Treinin (Hebrew University, Jerusalem, Israel). Subsequent to linearization and purification of cloned cDNAs, RNA transcripts were prepared in vitro using the appropriate mMessage Machine kit from Ambion Inc. (Austin, TX).
The preparation of Xenopus laevis oocytes for RNA expression was conducted as previously described. Stage 5 oocytes were isolated and injected with […] (5–20 ng) of each subunit cRNAs. Recordings were conducted 2–5 days after injection. RNA coding for human α7 nAChR was routinely co-injected with the cDNA for human RIC-3, an accessory protein that improves and accelerates α7 nAChR expression without affecting the pharmacological properties of the receptors.
Experiments were conducted using OpusXpress6000A (Molecular Devices, Union City, CA) as described before. ACh applications were 12 seconds in duration.
Each oocyte received two initial control applications of 300 μM ACh, followed by the experimental drug application, and subsequent control application of 300 μM ACh, unless otherwise indicated. Responses to experimental drug applications were determined relative to the preceding ACh control responses in order to normalize the data, compensating for the varying levels of channel expression among the oocytes. Responses for α7 nAChR were calculated as net charge, since peak currents inaccurately report the agonist concentration dependence of α7 nAChR-mediated responses. For experiments measuring the effects of ACh and the experimental compounds on allosterically modulated receptors, following the acquisition of baseline responses, cells were given a 60 s application of 300 μM PNU-120596. […] For all experiments, means and standard error of the mean (SEM) were calculated from the normalized responses of at least four oocytes for each experimental concentration, plotted using Kaleidagraph 3.52 (Synergy Software, Reading, PA), and curves were generated from the Hill equation: Response=IMax[agonist]^n/[agonist]^n+(EC50)^n where Imax denotes the maximal response for a particular agonist/subunit combination, and n represents the Hill coefficient. Imax, n, and the EC50 were all unconstrained for the fitting procedures except in the case of the ACh concentration-response curves.

In assay [1] the target is T2, α4β2 nAChR (Rattus norvegicus, UniProt P09483+P12390).
T2 construct: tissue Cerep; host or cells: rat brain membranes
Put plainly: cytisine binding to rat brain membranes. The conditions noted are these: read-out: Ki, α4β2nAChR binding affinity. Here is the method: (§2) Broad selectivity was assessed at Cerep (Celle l’ Evescault, France), as described in the Cerep catalog, though the determination of the effect of PMP-311 and PMP-072 in in vitro radioligand receptor binding assays with 52 different receptors, channels, and transporters. The specific ligand binding to the receptors is defined as the difference between the total binding, and the nonspecific binding determined in the presence of an excess of unlabelled ligand. The results are expressed as a percent of control specific binding and as the mean percent inhibition of control specific binding obtained in the presence of 10 μM PMP-311 and PMP-072. Individual and mean values are presented in the results section. The IC50 values (concentration causing a half-maximal inhibition of control specific binding) and Hill coefficients (nH) were determined by non-linear regression as described above.

The subject of assay [2] is T3, human α7 nAChR primed with PNU-120596.
T3 construct: expressed in transfected cells; host or cells: Xenopus laevis oocytes injected with cRNA; clones from Dr. Jon Lindstrom (α7) and Dr. Millet Treinin (RIC-3)
Description: electrophysiology of oocytes primed with PNU-120596. It counts as biochemical. As to conditions: after 60 s priming with 300 μM PNU-120596; PMP-311 1 μM, PMP-072 10 μM, MLA 10 μM. Here is the method: Each oocyte received two initial control applications of 300 μM ACh, followed by the experimental drug application, and subsequent control application of 300 μM ACh, unless otherwise indicated. Responses to experimental drug applications were determined relative to the preceding ACh control responses in order to normalize the data, compensating for the varying levels of channel expression among the oocytes. Responses for α7 nAChR were calculated as net charge, since peak currents inaccurately report the agonist concentration dependence of α7 nAChR-mediated responses. […] Imax, n, and the EC50 were all unconstrained for the fitting procedures except in the case of the ACh concentration-response curves.

Assay [3] concerns the target T4, human serotonin transporter (Homo sapiens, UniProt P31645).
T4 construct: Cerep
Put plainly: Cerep broad selectivity radioligand binding panel. As for the experimental part:
as §2

For assay [4], the target named is T5, α4β2 nAChR (Homo sapiens, UniProt P17787+P43681).
T5 construct: expressed in transfected cells; host or cells: Xenopus laevis oocytes injected with subunit cRNAs; clones from Dr. Jon Lindstrom
Description: ion channel assay on α4β2 nAChR in Xenopus oocytes. It counts as biochemical. The conditions noted are these: data not shown. Here is the method:
as §1
The preparation of Xenopus laevis oocytes for RNA expression was conducted as previously described. Stage 5 oocytes were isolated and injected with […] (5–20 ng) of each subunit cRNAs. Recordings were conducted 2–5 days after injection. […]
Each oocyte received two initial control applications of 300 μM ACh, followed by the experimental drug application, and subsequent control application of 300 μM ACh, unless otherwise indicated. Responses to experimental drug applications were determined relative to the preceding ACh control responses in order to normalize the data, compensating for the varying levels of channel expression among the oocytes. Responses for α7 nAChR were calculated as net charge, since peak currents inaccurately report the agonist concentration dependence of α7 nAChR-mediated responses. […]

Read-outs that look alike come from different tables or passages of the source. Where only a bound is given, the exact number is not on record here.

Here are results for 2 compounds from publication PMC4305287, “Two Novel α7 Nicotinic Acetylcholine Receptor Ligands: In Vitro Properties and Their Efficacy in Collagen-Induced Arthritis in Mice” (PLoS ONE, 2015).

T2 sequence (P09483 31-630): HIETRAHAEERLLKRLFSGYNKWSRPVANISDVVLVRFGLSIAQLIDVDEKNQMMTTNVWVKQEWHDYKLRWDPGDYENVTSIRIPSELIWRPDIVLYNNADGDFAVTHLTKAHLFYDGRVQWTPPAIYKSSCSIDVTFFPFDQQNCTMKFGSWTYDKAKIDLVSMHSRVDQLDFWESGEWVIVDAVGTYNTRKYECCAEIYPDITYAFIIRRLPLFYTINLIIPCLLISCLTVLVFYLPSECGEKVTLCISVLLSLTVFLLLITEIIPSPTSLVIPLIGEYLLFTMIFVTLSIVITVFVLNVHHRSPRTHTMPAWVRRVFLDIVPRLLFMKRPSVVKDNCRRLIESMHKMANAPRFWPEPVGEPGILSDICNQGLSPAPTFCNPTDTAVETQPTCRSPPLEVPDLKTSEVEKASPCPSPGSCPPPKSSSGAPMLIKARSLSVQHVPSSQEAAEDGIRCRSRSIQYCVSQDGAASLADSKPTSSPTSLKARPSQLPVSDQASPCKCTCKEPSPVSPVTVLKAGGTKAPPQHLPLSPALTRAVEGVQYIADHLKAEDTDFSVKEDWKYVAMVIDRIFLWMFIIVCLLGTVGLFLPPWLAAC
T2 sequence (P12390 25-500): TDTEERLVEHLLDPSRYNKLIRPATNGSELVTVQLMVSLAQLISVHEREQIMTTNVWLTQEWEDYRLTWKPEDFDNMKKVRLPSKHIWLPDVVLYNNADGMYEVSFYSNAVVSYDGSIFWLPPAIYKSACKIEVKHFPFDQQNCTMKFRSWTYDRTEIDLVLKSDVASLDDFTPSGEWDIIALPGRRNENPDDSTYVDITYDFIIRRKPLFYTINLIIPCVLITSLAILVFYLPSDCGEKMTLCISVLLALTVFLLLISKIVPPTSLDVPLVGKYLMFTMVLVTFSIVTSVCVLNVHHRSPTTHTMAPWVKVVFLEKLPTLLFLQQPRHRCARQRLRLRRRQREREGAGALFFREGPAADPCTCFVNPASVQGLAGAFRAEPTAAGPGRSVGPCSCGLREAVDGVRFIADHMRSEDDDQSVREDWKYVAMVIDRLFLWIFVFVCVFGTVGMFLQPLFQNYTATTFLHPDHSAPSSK
T1 sequence (P36544 23-502): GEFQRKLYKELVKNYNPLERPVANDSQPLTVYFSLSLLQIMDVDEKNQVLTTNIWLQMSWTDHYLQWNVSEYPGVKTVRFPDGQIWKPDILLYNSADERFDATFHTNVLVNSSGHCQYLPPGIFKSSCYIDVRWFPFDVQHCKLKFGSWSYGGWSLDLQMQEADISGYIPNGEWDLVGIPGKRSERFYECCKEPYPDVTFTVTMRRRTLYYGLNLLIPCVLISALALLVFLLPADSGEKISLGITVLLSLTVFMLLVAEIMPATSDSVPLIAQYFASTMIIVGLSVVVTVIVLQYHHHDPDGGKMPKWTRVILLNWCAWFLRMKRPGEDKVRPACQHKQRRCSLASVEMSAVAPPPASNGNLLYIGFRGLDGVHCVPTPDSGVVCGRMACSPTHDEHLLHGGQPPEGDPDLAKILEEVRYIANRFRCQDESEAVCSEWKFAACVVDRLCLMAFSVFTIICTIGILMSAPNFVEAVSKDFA
T5 sequence (P43681 29-627 limits assumed): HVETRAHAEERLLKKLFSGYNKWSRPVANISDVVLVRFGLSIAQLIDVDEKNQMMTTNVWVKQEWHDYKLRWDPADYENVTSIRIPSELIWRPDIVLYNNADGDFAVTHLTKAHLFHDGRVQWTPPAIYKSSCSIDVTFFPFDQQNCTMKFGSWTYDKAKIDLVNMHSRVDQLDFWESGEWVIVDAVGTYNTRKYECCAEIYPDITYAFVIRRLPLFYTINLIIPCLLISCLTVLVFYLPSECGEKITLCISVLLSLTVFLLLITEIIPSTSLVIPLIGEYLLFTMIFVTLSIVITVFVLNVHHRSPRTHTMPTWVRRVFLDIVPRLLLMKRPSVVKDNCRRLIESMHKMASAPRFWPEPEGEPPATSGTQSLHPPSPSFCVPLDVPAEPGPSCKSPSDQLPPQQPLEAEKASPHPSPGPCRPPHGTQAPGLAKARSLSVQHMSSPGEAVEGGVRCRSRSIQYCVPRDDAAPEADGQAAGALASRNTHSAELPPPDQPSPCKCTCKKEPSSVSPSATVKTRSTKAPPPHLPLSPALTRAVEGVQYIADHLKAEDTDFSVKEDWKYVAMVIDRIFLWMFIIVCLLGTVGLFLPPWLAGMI
T5 sequence (P17787 26-502): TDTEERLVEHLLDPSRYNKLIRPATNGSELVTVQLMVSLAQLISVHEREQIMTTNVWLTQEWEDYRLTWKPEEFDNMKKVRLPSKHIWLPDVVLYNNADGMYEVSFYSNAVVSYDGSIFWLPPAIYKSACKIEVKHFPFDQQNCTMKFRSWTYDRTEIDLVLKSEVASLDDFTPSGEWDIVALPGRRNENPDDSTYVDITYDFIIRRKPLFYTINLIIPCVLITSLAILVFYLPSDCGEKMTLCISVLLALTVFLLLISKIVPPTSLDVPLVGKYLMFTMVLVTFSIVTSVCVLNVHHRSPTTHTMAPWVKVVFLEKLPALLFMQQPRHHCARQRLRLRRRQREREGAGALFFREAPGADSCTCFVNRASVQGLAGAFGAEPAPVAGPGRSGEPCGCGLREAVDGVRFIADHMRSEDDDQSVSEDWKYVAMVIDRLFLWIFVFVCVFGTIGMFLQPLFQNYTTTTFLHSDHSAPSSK
Chain of rat α7 nAChR (Q05941 23-502): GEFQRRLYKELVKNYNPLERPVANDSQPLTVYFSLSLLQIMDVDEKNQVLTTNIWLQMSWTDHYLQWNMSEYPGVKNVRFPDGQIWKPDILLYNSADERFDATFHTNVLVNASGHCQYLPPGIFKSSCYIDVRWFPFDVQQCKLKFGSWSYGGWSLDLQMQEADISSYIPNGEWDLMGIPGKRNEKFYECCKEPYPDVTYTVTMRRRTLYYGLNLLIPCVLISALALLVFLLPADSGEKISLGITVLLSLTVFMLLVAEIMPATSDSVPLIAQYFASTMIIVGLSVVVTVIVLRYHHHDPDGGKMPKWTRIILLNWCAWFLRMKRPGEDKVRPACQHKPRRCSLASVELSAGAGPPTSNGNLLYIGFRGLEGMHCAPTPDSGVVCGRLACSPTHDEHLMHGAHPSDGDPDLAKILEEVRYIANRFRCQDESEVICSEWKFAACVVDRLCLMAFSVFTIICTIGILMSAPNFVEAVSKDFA
T4 sequence (P31645 whole entry): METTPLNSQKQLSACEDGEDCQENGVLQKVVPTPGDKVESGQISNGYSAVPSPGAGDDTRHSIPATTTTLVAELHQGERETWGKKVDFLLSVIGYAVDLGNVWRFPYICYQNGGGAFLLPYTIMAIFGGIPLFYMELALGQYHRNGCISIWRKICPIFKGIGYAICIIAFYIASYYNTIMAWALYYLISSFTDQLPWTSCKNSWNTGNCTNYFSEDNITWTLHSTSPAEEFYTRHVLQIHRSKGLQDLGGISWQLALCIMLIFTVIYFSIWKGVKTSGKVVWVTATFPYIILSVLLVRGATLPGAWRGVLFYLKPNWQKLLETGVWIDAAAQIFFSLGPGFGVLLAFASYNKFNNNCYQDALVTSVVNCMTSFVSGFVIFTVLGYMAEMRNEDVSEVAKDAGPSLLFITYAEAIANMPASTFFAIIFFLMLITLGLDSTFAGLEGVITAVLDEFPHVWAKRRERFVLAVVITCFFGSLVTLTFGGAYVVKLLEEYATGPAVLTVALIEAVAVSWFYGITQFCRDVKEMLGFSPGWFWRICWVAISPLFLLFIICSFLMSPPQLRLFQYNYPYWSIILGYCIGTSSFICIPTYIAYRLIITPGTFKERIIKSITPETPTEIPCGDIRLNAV
Description for rat α7 nAChR: Binding studies with rat α7 nAChR were done using the rat pheochromocytoma cell line PC12 that endogenously expresses the α7 nAChR (American Type Culture Collection, Manassas, VA). PC12 cells were maintained in Ham F-12 nutrient mixture, containing 15% horse serum, 2.5% fetal bovine serum (FBS), 2 mM L-glutamine, 1.5 g/L NaHCO3, 100 units of penicillin, and 100 μg streptomycin.
For the binding assay, PC12 cells were resuspended in binding buffer (phosphate buffered saline with calcium and magnesium, containing 1% FBS and 0.02% NaN3) at 1.5 to 2.7 × 10^6 cells per ml and 55 μl (0.8–1.5 × 10^5 cells per well) was added to a 96-well, v-bottom plate. […]
Phycoerythrin-labeled streptavidin (streptavidin-PE) (Becton-Dickinson, Franklin Lakes, NJ) was diluted in binding buffer and 50 μl was added to the cells (excluding the cell control) at a 1.0 μg/ml final concentration. […] BTx binding was quantified by fluorescence-activated cell sorting (FACS) analysis. For each concentration of test compound, the displacement of BTx from the α7 nAChR was quantified by measuring the intensity of the fluorescent signal. […] Ki values were calculated from IC50 values using the Cheng-Prusoff equation: Ki=IC50/1+[BTx]/KD

Turning to `COc1ccc(NC(=O)N2CCNC[C@@H]2COc2cccnc2)cc1` [PMP-072, (R)-N-(4-methoxyphenyl)-2-((pyridin-3-yloxy)methyl)piperazine-1-carboxamide], the figures for the Ki (at rat α7 nAChR; at α4β2 nAChR [1]; in assay [3]) were 6.9 ± 1.4 nM, more than 100000 nM and 1800 nM, respectively. For the same compound, on human α7 nAChR, the “agonist activity at α7 nAChR ion channel” value is on record as “did not appear to be an agonist”. Moreover, at human α7 nAChR (co-applied with 60 μM ACh, read-out: IC50, antagonism of ACh-stimulated α7 nAChR channel activity), the IC50 (in general, the concentration that gives 50% inhibition) is 20 to 50 nM. Besides, the “ion channel response of PNU-120596 primed cells” value in assay [2] is given as “able to activate large ion channel currents”.

As for `c1cncc(OC[C@@H]2CNCCN2c2nc3ncccc3o2)c1` [PMP-311, (S)-2-(2-((Pyridin-3-yloxy)methyl)piperazin-1-yl)oxazolo[4,5-b]pyridine], the inhibitory constant (Ki) (as a rule, the dissociation constant of the complex between target and ligand, obtained from inhibition or displacement) on rat α7 nAChR is 0.9 ± 0.2 nM; on α4β2 nAChR [1] it was 30 nM. At human α7 nAChR, the “agonist activity at α7 nAChR ion channel” value is on record as “elicited a typical inward current”. Moreover, the EC50 (in general, the midpoint of the concentration-response curve) at human α7 nAChR (Xenopus oocytes, read-out: EC50 of α7 nAChR activation) was approximately 200 nM. Moreover, on human α7 nAChR (net charge, normalized to 300 μM ACh, read-out: maximum response compared to ACh), the Emax was approximately 85%. For the same compound, the 50% inhibitory concentration (IC50) at α4β2 nAChR [4] (read-out: IC50, antagonist of α4β2 nAChR) was approximately 20 nM; at α4β2 nAChR [4] (ion channel assay, read-out: IC50, inhibition of α4β2 nAChR) it was less than 1000 nM. Besides, the inhibition (in general, the drop in the measured response relative to a control, in per cent) at 10 µM in assay [3] (10 μM) stood at 72%.
